This is an account of results in patent publication US20250313562A1, “Substituted tricyclic ligands for FK506-binding proteins for treatment of diseases” (Technische Universität Darmstadt, priority 2024, published 2025).

For test [1], the target named is T1, FKBP12 (Homo sapiens, UniProt P62942). The experiment in a line: competitive fluorescence polarization assay, FKBP12. Format: binding. On the procedure:
(§1) Affinity determination by competitive fluorescence polarization assay. The synthesized tricyclic sulfonamides were tested for their binding affinities to human FKBPs (FKBP12 and FKBP51) by the fluorescence polarization assay (Table 1).

Test [2] has as its target T1, FKBP12. The experiment in a line: nanoBRET assay, intracellular FKBP12 occupancy in HEK293T cells. Format: cell-based. Particulars: for IC50: intracellular occupancy. The protocol: (§2) For compounds 31 and 32 target engagement of FKBP12 and FKBP51 in the HEK293T cells was tested (Table 2).
For orientation: Bioluminescence resonance energy transfer reports proximity on the nanometre scale.

In test [3] the target is T2, FKBP51 (Homo sapiens, UniProt Q13451).
T2 sequence (Q13451 1-457): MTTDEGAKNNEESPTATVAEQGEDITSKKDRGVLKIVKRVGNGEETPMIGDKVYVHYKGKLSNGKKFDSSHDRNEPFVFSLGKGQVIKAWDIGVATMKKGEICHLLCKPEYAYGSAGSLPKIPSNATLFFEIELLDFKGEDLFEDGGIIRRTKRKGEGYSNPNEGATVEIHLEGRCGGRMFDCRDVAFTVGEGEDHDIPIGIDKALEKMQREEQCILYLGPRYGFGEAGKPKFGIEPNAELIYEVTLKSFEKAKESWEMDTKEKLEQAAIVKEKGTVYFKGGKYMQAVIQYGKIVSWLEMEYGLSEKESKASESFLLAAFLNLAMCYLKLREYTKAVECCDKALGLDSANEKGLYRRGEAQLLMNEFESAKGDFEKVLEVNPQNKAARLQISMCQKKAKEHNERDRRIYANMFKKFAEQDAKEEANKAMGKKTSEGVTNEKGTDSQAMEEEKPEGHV
Kind of test: nanoBRET assay, intracellular FKBP51 occupancy in HEK293T cells. Particulars: for IC50: intracellular occupancy; for displacement of the tracer for FKBP51 (potency in words): nanoBRET. The test is classed as cell-based. The protocol: as §2

The target of test [4] is T2, FKBP51. Kind of test: competitive fluorescence polarization assay, FKBP51. Format: binding. The protocol: as §1
(In fluorescence polarisation assays a small probe gives low polarisation when free and higher when bound to something large.)

T1 sequence (P62942 whole entry): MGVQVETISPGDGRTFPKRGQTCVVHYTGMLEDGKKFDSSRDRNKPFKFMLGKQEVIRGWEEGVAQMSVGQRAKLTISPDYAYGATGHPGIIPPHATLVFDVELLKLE

By Ki is commonly meant a measure of affinity in units of concentration, obtained from inhibition or displacement. The term IC50 denotes the concentration that gives 50% inhibition. Higher therefore signals lower potency. Turning to `CCNC(=O)[C@@H]1CC[C@H]2[C@H](CO)C3CCCC(C(=O)N12)N3S(=O)(=O)c1cc(Cl)cc(Cl)c1` (stereo in doubt) [Compound 31], the Ki is 0.013 ± 0.004 nM on FKBP12 [1] and 0.76 ± 0.2 nM on FKBP51 [4]. For the same compound, the half-inhibitory concentration (IC50) against FKBP12 [2] amounted to 3.9 ± 0.3 nM; on FKBP51 [3] it was 8.5 ± 0.6 nM. In addition, on FKBP51 [3], the “displacement of the tracer for FKBP51 (potency in words)” value is “low nanomolar potency”.

`CC1CCN(C(=O)[C@@H]2CC[C@H]3[C@H](CO)C4CCCC(C(=O)N23)N4S(=O)(=O)c2cc(Cl)cc(Cl)c2)CC1` (stereo in doubt) [Compound 32]: the Ki on FKBP12 [1] was determined as 0.019 ± 0.007 nM; on FKBP51 [4], 0.72 ± 0.2 nM. Further, the results for the IC50 on FKBP12 [2] and on FKBP51 [3] were 0.49 ± 0.04 nM and 3.3 ± 0.3 nM, respectively. The “competition with the tracer for FKBP12 (potency in words)” value at FKBP12 [2] (nanoBRET) is recorded as “subnanomolar potency”. For the same compound, on FKBP51 [3], the “displacement of the tracer for FKBP51 (potency in words)” value was “low nanomolar potency”.

In the case of `C=C[C@@H]1C2CCCC(C(=O)N3[C@H](C(=O)O)CC[C@@H]13)N2S(=O)(=O)c1cc(Cl)cc(Cl)c1` (stereo partly drawn) [Compound 3], the figures for the Ki on FKBP12 [1] and at FKBP51 [4] were 12 ± 1.7 nM and 698 ± 49 nM, respectively.

`C=C[C@@H]1C2CCCC(C(=O)N3[C@H](C(=O)OC)CC[C@@H]13)N2S(=O)(=O)c1cc(Cl)cc(Cl)c1` (stereo partly drawn) [Compound 20]: the figures for the Ki at FKBP12 [1] and on FKBP51 [4] were 1 ± 0.1 nM and 76 ± 10 nM, respectively.

For `C=C[C@@H]1C2CCCC(C(=O)N3[C@H](C(N)=O)CC[C@@H]13)N2S(=O)(=O)c1cc(Cl)cc(Cl)c1` (stereo partly drawn) [Compound 21], the results for the Ki on FKBP12 [1] and at FKBP51 [4] were 0.48 ± 0.08 nM and 18 ± 3 nM, respectively.

Turning to `C=C[C@@H]1C2CCCC(C(=O)N3[C@H](C(=O)NC)CC[C@@H]13)N2S(=O)(=O)c1cc(Cl)cc(Cl)c1` (stereo partly drawn) [Compound 22], the Ki worked out at 0.32 ± 0.04 nM at FKBP12 [1] and 7.7 ± 0.9 nM on FKBP51 [4].

For `C=C[C@@H]1C2CCCC(C(=O)N3[C@H](C(=O)N(C)C)CC[C@@H]13)N2S(=O)(=O)c1cc(Cl)cc(Cl)c1` (stereo partly drawn) [Compound 23], the Ki on FKBP12 [1] came to 2.3 ± 0.2 nM; at FKBP51 [4], 121 ± 8 nM.

In the case of `C=C[C@@H]1C2CCCC(C(=O)N3[C@H](C(=O)NCC)CC[C@@H]13)N2S(=O)(=O)c1cc(Cl)cc(Cl)c1` (stereo partly drawn) [Compound 24], the results for the Ki on FKBP12 [1] and at FKBP51 [4] were 0.043 ± 0.01 nM and 1.1 ± 0.4 nM, respectively.

As for `C=C[C@@H]1C2CCCC(C(=O)N3[C@H](C(=O)N4CCC(C)CC4)CC[C@@H]13)N2S(=O)(=O)c1cc(Cl)cc(Cl)c1` (stereo partly drawn) [Compound 25], the Ki on FKBP12 [1] was 0.067 ± 0.01 nM; on FKBP51 [4], 0.93 ± 0.2 nM.

For the compound `C=C[C@@H]1C2CCCC(C(=O)N3[C@H](C(=O)N4CCN(C)CC4)CC[C@@H]13)N2S(=O)(=O)c1cc(Cl)cc(Cl)c1` (stereo partly drawn) [Compound 26], the Ki stood at 0.16 ± 0.018 nM on FKBP12 [1] and 11 ± 0.7 nM at FKBP51 [4].

For the compound `C=C[C@@H]1C2CCCC(C(=O)N3[C@H](C(=O)N4C[C@@H]5C[C@H]4CN5C)CC[C@@H]13)N2S(=O)(=O)c1cc(Cl)cc(Cl)c1` [Compound 27], the results for the Ki at FKBP12 [1] and on FKBP51 [4] were 0.55 ± 0.07 nM and 17 ± 1.7 nM, respectively.

Take `C=C[C@@H]1C2CCCC(C(=O)N3[C@H](C(=O)N4C[C@@H]5C[C@H]4CN5)CC[C@@H]13)N2S(=O)(=O)c1cc(Cl)cc(Cl)c1` [Compound 28]: the Ki at FKBP12 [1] turned out to be 0.72 ± 0.1 nM; on FKBP51 [4] it was 52 ± 6 nM.

`C=C[C@H]1[C@@H]2CC[C@@H](c3ccccn3)N2C(=O)C2CCC[C@@H]1N2S(=O)(=O)c1cc(Cl)cc(Cl)c1` [Compound 30]: the figures for the Ki at FKBP12 [1] and at FKBP51 [4] were 12 ± 1.6 nM and 464 ± 79 nM, respectively.
